Ends that are not written are not given here. * marks the point of attachment. FITC = O=C1OC2(c3ccc(O)cc3Oc3cc(O)ccc32)c2ccc(NC(=S)*)cc21; Ahx = NCCCCCC(=O)O
Legend:
Type in all cases: cell-based, human
[1] = system: HaCaT cells; assay: Cell penetration rate by flow cytometry; settings: 10 μM, 37° C., 1 hour
Method: (§1) HaCaT cells were inoculated at a concentration of 3×10^5 cells/well into a 6-well plate and incubated for 24 hours. Then, the cell culture medium was removed, followed by washing twice with HBSS, and replaced with an Opti-MEM medium. The cells were treated with 10 μM FITC-TAT, FITC-Spep001, FITC-Spep002 or FITC-Spep003 and incubated at 37° C. with 5% CO2 for 1 hour. […] Finally, the cells were treated with 1 mg/mL trypsin and thus separated into single cells, followed by centrifugation at 1,000 rpm for 5 minutes. The FITC fluorescence intensities of cell-penetrating peptides per living 10,000 cells were measured by performing flow cytometry (Navios Flow Cytometer by Beckman Coulter Life Sciences), and the result thereof is shown in FIG. 5A(i) to FIG. 5A(v) and FIG. 5B.

[2] = system: HaCaT cells; assay: Cell penetration by confocal laser microscope; settings: 10 μM, 24 hours, compared to positive control FITC-TAT
Method: HaCaT cells were inoculated at a concentration of 1.5×10^4 cells/well into an optical 96-well plate (M0562, Greiner) and incubated for 24 hours. Then, the medium was removed, followed by washing once with HBSS, and replaced with a serum-free medium. The cells were treated with 10 μM FITC-Spep001, FITC-Spep002 or FITC-Spep003 and then further incubated for 24 hours. Thereafter, the cells were washed four times with HBSS and treated with 10 μg/mL H33342 (bisBenzimide H33342 trihydrochloride (B2261, Sigma)) and then further incubated at room temperature for 5 minutes. Finally, the cells were washed three times with HBSS. The cell penetration rate was checked using a super resolution confocal laser microscope (LSM800), and the result thereof is shown in FIG. 4A(i) to FIG. 4F(iv). Herein, the cells were treated only FITC (F1906, Invitrogen™) as a negative control, and FITC-TAT was used as a positive control.

[3] = system: HaCaT cells; assay: Dependence of cell penetration on ATP (flow cytometry); settings: pre-treated with 2-DG and NaN3
Method: as §1
A test was conducted in the same conditions as those in Example 7 except that the cells were pre-treated with 2-DG (2-deoxyglucose, D6134, sigma) and NaN3 (sodium azide, 71289, sigma) one hour before treatment with FITC-TAT, FITC-Spep001, FITC-Spep002 or FITC-Spep003 to check the dependence of endocytosis on ATP. Then, the FITC fluorescence intensities of peptides penetrating into living cells were measured by flow cytometry as in Example 5, and the result thereof is shown in FIG. 7.

FITC-Ahx-RLRLRQRRRR ({FITC-Ahx}-RLRLRQRRRR) [FITC-Spep001, Spep001 labelled with FITC at the N-terminal amine group]
cell penetration rate (FITC-positive cell count) [1]: 36.3% | cell penetration rate based on TAT-FITC with a cell penetration rate of 100% [1]: 133.95% | amount penetrating into cells (fluorescent microscopic image) [2]: penetrates into cells in a greater amount than the positive control FITC-TAT | FITC fluorescence intensity under ATP deficiency [3]: decreased

From patent US11951204B2, “Cell-penetrating peptides and composition including the same” (S-SKIN. CO., LTD., priority 2022, dated 2024)
